Source: ChEMBL document CHEMBL5291721, “A preclinical secondary pharmacology resource illuminates target-adverse drug reaction associations of marketed drugs” (Nat Commun, 2023)

Experiments:
[1] = molecular target: T1, Gastrin/cholecystokinin type B receptor (Homo sapiens, UniProt P32239)
T1 sequence (P32239 whole entry): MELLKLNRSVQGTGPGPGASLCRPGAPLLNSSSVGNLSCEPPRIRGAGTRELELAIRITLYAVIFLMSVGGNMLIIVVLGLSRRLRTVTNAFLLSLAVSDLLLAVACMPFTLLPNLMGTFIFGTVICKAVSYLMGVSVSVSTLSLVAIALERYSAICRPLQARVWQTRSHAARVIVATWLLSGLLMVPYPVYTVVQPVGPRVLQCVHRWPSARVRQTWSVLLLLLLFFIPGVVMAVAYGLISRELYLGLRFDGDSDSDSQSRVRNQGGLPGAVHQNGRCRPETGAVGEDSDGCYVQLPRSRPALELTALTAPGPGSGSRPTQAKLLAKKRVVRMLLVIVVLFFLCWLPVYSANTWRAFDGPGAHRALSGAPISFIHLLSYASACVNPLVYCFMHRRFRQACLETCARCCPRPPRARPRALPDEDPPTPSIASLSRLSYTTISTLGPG

[2] = molecular target: Sodium-dependent dopamine transporter (Homo sapiens, UniProt Q01959)
Sodium-dependent dopamine transporter, sequence (Q01959 whole entry): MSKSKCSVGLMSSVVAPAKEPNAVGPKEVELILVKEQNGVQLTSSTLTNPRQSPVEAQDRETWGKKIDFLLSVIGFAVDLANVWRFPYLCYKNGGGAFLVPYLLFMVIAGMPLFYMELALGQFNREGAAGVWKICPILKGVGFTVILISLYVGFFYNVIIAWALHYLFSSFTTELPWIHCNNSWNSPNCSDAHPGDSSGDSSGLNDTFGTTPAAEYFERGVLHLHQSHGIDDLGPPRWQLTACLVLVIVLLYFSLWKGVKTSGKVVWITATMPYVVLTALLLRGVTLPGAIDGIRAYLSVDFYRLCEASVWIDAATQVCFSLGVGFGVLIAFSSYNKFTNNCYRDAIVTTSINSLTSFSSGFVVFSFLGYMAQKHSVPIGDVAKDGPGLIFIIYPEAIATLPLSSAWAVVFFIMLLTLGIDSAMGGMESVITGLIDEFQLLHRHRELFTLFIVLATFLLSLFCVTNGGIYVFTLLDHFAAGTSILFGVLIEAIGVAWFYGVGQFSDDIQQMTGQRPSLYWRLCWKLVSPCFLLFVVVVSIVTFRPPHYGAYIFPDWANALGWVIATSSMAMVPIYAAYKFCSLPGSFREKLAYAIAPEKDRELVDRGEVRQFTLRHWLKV

[3] = molecular target: T2, Muscarinic acetylcholine receptor M1 (Homo sapiens, UniProt P11229); type: functional
T2 sequence (P11229 whole entry): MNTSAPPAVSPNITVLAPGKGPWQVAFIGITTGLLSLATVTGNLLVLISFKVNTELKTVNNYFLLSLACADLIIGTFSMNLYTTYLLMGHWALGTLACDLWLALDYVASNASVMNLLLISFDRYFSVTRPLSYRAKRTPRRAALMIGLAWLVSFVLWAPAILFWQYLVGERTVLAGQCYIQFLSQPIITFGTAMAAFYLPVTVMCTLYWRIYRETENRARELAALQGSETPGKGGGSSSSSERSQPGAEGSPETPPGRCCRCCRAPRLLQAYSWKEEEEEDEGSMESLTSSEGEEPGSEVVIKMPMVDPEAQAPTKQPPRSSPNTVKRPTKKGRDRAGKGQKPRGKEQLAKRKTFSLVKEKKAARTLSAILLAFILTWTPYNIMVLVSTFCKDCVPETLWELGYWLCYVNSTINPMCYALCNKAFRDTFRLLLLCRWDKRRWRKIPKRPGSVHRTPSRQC

[4] = molecular target: T3, Glucocorticoid receptor (Homo sapiens, UniProt P04150)
T3 sequence (P04150 whole entry): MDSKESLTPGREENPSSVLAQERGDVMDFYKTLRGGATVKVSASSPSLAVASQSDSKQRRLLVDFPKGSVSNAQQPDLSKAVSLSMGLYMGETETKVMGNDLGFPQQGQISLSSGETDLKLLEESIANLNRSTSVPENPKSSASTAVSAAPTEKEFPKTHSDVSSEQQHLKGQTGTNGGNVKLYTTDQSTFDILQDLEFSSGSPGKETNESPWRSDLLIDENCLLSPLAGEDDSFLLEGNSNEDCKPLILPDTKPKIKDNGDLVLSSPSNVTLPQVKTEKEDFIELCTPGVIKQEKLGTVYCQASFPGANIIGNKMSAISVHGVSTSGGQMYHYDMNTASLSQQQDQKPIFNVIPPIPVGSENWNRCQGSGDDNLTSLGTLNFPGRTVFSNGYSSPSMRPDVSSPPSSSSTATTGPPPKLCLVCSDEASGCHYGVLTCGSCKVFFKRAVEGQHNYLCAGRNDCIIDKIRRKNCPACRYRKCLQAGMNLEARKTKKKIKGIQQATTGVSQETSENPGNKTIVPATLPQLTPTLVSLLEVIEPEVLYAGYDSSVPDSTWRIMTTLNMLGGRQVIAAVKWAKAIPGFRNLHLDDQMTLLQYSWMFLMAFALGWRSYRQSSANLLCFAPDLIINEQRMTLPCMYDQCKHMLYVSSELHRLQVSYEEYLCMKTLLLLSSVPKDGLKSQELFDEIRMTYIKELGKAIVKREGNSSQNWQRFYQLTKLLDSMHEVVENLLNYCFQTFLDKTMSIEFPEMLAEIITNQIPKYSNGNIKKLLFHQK

[5] = molecular target: T4, Neuropeptide Y receptor type 1 (Homo sapiens, UniProt P25929)
T4 sequence (P25929 whole entry): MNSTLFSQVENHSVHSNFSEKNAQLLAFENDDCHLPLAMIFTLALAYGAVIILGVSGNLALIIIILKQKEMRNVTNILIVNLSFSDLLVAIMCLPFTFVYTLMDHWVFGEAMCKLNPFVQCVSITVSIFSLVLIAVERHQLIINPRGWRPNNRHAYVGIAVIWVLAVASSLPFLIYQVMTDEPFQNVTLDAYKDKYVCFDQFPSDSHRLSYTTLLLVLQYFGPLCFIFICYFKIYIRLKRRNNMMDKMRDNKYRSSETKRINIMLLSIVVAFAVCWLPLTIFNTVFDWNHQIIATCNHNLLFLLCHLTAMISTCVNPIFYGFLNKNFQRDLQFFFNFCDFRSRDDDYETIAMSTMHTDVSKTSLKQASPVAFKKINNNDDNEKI

[6] = molecular target: T5, Muscarinic acetylcholine receptor M2 (Homo sapiens, UniProt P08172)
T5 sequence (P08172 whole entry): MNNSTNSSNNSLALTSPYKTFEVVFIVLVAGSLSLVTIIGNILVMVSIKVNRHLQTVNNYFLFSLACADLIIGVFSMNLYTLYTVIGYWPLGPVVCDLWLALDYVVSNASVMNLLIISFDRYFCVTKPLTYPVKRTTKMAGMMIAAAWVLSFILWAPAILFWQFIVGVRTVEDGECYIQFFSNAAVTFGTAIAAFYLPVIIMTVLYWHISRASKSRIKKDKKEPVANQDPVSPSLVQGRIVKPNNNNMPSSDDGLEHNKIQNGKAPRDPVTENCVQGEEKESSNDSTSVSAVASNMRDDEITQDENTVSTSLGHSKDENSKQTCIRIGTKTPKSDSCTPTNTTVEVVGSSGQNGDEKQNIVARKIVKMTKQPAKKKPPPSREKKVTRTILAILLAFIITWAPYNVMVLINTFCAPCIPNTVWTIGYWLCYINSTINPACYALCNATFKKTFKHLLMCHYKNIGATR

[7] = molecular target: Vascular endothelial growth factor receptor 2 (Homo sapiens, UniProt P35968); type: functional
Vascular endothelial growth factor receptor 2, sequence (P35968 whole entry): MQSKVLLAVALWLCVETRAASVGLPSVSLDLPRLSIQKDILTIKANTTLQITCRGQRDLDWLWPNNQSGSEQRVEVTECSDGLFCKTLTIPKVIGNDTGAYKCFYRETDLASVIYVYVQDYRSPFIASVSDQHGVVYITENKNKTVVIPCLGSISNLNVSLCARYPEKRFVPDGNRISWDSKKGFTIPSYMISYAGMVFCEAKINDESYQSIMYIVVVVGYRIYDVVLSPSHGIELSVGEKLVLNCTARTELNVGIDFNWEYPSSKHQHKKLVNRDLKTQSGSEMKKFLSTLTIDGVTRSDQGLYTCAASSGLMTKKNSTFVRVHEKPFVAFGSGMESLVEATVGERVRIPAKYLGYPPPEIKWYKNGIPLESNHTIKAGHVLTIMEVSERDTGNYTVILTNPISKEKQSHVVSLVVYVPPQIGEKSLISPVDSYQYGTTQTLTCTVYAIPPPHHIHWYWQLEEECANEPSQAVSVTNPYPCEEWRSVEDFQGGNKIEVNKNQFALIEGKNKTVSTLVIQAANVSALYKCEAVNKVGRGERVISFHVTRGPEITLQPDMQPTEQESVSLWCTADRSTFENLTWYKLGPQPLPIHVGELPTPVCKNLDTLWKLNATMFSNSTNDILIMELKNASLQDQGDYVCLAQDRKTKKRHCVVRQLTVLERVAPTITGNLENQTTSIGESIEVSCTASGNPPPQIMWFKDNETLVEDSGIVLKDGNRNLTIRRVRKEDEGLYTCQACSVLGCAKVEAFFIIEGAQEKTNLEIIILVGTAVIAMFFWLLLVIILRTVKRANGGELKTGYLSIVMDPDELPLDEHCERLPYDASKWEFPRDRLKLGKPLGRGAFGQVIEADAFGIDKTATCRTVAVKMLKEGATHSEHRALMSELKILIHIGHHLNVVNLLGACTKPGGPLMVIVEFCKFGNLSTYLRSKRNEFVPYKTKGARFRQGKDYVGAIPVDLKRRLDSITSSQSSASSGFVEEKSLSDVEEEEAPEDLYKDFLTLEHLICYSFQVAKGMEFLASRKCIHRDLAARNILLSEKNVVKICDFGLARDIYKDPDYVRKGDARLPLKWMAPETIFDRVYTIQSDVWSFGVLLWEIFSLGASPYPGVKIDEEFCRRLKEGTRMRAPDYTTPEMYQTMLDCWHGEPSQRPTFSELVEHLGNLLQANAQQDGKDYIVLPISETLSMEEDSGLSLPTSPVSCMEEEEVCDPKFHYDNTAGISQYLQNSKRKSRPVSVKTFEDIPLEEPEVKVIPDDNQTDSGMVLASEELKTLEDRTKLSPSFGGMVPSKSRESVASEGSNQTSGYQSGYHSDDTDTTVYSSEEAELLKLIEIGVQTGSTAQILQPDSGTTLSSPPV
Further: assay procedure not described here.

| SMILES | AC50 [1] [µM] | AC50 [2] [µM] | AC50 [3] [µM] | AC50 [4] [µM] | AC50 [5] [µM] | AC50 [6] [µM] | AC50 [7] [µM] |
| --- | --- | --- | --- | --- | --- | --- | --- |
| CCN(CC)CCn1c(=O)c(Cc2ccc(OC)cc2)nc2ccccc21 [CAROVERINE] | > 30 | > 30 | > 30 | > 30 | > 30 | – | – |
| CCCCCCO[C@@H](C)c1cccc(-c2csc(NC(=O)c3cc(Cl)c(/C=C(\C)C(=O)O)c(Cl)c3)n2)c1OC [LUSUTROMBOPAG] | – | – | – | – | – | > 30 | > 30 |
| C[C@]12CC[C@@H]3c4ccc(OC(=O)N(CCCl)CCCl)cc4CC[C@H]3[C@@H]1CC[C@@H]2OP(=O)(O)O [ESTRAMUSTINE PHOSPHATE] | – | – | – | – | – | > 30 | 19.5 |
| CC(C)NC[C@H](O)COc1ccc(O)cc1 [PRENALTEROL] | – | – | – | – | – | > 30 | > 30 |
| CC(C)/N=c1\cc2n(-c3ccc(Cl)cc3)c3ccccc3nc-2cc1Nc1ccc(Cl)cc1 [CLOFAZIMINE] | > 30 | > 30 | 13 | 0.034 | > 30 | – | – |
| O=P1(N(CCCl)CCCl)NCCCO1 (configuration not stated) [CYCLOPHOSPHAMIDE ANHYDROUS] | – | – | – | – | – | > 30 | > 30 |
| C=CCOc1ccc(CC(=O)O)cc1Cl [ALCLOFENAC] | – | – | – | – | – | > 30 | > 30 |
| N#Cc1ccnc(N2C(=O)CC[C@H]2C(=O)N(c2cncc(F)c2)[C@H](C(=O)NC2CC(F)(F)C2)c2ccccc2Cl)c1 [IVOSIDENIB] | – | – | – | – | – | > 30 | > 30 |
| CC(C)C[C@H](NC(=O)[C@H](Cc1ccccc1)NC(=O)c1cnccn1)B(O)O [BORTEZOMIB] | > 30 | > 30 | > 30 | > 30 | > 30 | – | – |
| CC(=O)SCC(Cc1ccccc1)C(=O)NCC(=O)OCc1ccccc1 (configuration not stated) [RACECADOTRIL] | > 30 | > 30 | > 30 | > 30 | > 30 | – | – |
| OC[C@H]1NC[C@H](O)[C@@H](O)[C@H]1O | – | – | – | – | – | > 30 | > 30 |
| CS(=O)(=O)Nc1ccc([N+](=O)[O-])cc1Oc1ccccc1 [NIMESULIDE] | > 30 | 9 | – | – | > 30 | > 30 | > 30 |
| O=c1[nH]c2ccccc2n1CCN1CCN(c2cccc(C(F)(F)F)c2)CC1 [FLIBANSERIN] | – | – | – | – | – | > 30 | > 30 |
| Cc1c(C)c2c(c(C)c1O)CCC(C)(COc1ccc(CC3SC(=O)NC3=O)cc1)O2 (configuration not stated) [TROGLITAZONE] | > 30 | 23.7 | – | – | > 30 | 17.8 | > 30 |
| N[C@@H](Cc1cc(I)c(Oc2cc(I)c(O)c(I)c2)c(I)c1)C(=O)O [LEVOTHYROXINE] | > 30 | > 30 | > 30 | > 30 | > 30 | – | – |
| CN(C)CCOC(c1ccc(Cl)cc1)c1ccccn1 (configuration not stated) [CARBINOXAMINE] | > 30 | 5.2 | > 30 | > 30 | > 30 | – | – |
| CN1CCN(C(c2ccccc2)c2ccc(Cl)cc2)CC1 (configuration not stated) [CHLORCYCLIZINE] | – | – | – | – | – | 0.505 | > 30 |
| O=C(O)[C@H](O)[C@@H](O)[C@H](O)[C@H](O)CO [GLUCONIC ACID] | – | – | – | – | – | > 30 | > 30 |
| C[C@H](Cn1cnc2c(N)ncnc21)OCP(=O)(O)O [TENOFOVIR ANHYDROUS] | > 30 | > 30 | > 30 | > 30 | > 30 | – | – |

| SMILES | AC50 [1] [µM] | AC50 [2] [µM] | AC50 [3] [µM] | AC50 [4] [µM] | AC50 [5] [µM] | AC50 [6] [µM] | AC50 [7] [µM] |
| --- | --- | --- | --- | --- | --- | --- | --- |
| CCOC(=O)Nc1ccc(NCc2ccc(F)cc2)nc1N [FLUPIRTINE] | > 30 | > 30 | > 30 | > 30 | > 30 | – | – |
| CN(C)CCCC1(c2ccc(F)cc2)OCc2cc(C#N)ccc21 (configuration not stated) [CITALOPRAM] | > 30 | – | – | > 30 | > 30 | – | > 30 |
| CC(C)(Oc1ccc(Cl)cc1)C(=O)NC(=O)NCN1CCOCC1 [PLAFIBRIDE] | – | – | – | – | – | > 30 | > 30 |
| CCCCCCCC/C=C\CCCCCCCC(=O)O [OLEIC ACID] | – | – | – | – | – | > 30 | > 30 |
| N=C(N)NCC1COc2ccccc2O1 (configuration not stated) [GUANOXAN] | – | – | – | – | – | > 30 | > 30 |
| CNC1(c2ccccc2Cl)CCCCC1=O (configuration not stated) [KETAMINE] | – | – | – | – | – | > 30 | > 30 |
| CN(C)CCC=C1c2ccccc2CCc2ccccc21 [AMITRIPTYLINE] | > 30 | 13.8 | – | > 30 | > 30 | – | > 30 |
| CC1=C(C/C=C(\C)CCC[C@H](C)CCC[C@H](C)CCCC(C)C)C(=O)c2ccccc2C1=O [PHYTONADIONE] | – | – | – | – | – | > 30 | > 30 |
| CN(C)CCN(Cc1ccccc1)c1ccccn1 [TRIPELENNAMINE] | – | 1.3 | > 10 | > 10 | > 10 | 4.72 | > 30 |
| CN1CCC(N(Cc2cccs2)c2ccccc2)CC1 [THENALIDINE] | – | – | – | – | – | 0.699 | > 30 |
| Cc1cc(C)cc(OCC2CNC(=O)O2)c1 (configuration not stated) [METAXALONE] | – | – | – | – | – | > 30 | > 30 |
| NC(=O)C1(N2CCCCC2)CCN(CCCN2c3ccccc3CCc3ccccc32)CC1 [CARPIPRAMINE] | – | – | – | – | – | 4.39 | > 30 |
| CC#CC(=O)N1CCC[C@H]1c1nc(-c2ccc(C(=O)Nc3ccccn3)cc2)c2c(N)nccn12 [ACALABRUTINIB] | – | – | – | – | – | > 30 | 2.01 |
| Cc1ccc(C(C)C)c(O)c1 [THYMOL] | – | – | – | – | – | > 30 | > 30 |
| Cc1cccc(C)c1NC(=O)c1cc(S(N)(=O)=O)c(Cl)cc1O [XIPAMIDE] | – | – | – | – | – | > 30 | > 30 |
| NC(=O)C1(N2CCCCC2)CCN(CCCC(=O)c2ccc(F)cc2)CC1 [PIPAMPERONE] | – | – | – | – | – | > 30 | > 30 |
| O=C1[C@@H]2[C@H]3CC[C@H](C3)[C@@H]2C(=O)N1C[C@@H]1CCCC[C@H]1CN1CCN(c2nsc3ccccc23)CC1 [LURASIDONE] | – | – | – | – | – | – | > 30 |
| CC(C)Nc1cccnc1N1CCN(C(=O)c2cc3cc(NS(C)(=O)=O)ccc3[nH]2)CC1 [DELAVIRDINE] | – | – | – | – | – | > 30 | > 30 |
